Assay results as given in patent US10023543B2 (CELGENE QUANTICEL RESEARCH, INC., priority 2014, dated 2018).

What follows are compounds tested on THP-1 (AML) cells (assay: LSD1 CD11b cellular assay (flow cytometry)). Details: Homo sapiens, THP-1, 96 h, read-out: THP-1 IC50 (μM).
Format: cell-based

Q: For `COc1ccc(-c2c(-c3ccc(C#N)cc3)nc(N3CCC(N)CC3)n(C)c2=O)cc1` [Example 2, 4-[2-(4-amino-piperidin-1-yl)-5-(4-methoxy-phenyl)-1-methyl-6-oxo-1,6-dihydro-pyrimidin-4-yl]-benzonitrile], which IC50 is on record?
A: The IC50 was under 0.1 µM.

Same assay, conditions: Homo sapiens, THP-1, 96 h; CD11b expressing cells, 4 days; read-out: THP-1 IC50

Q: How did the IC50 turn out when `COc1ccc(-c2c(-c3ccc(C#N)c(F)c3)nc(N(C)C[C@@H]3CCNC3)n(C)c2=O)cc1` (stereo in doubt) [Example 56, 2-fluoro-4-[5-(4-methoxy-phenyl)-1-methyl-2-(methyl-pyrrolidin-3-ylmethyl-amino)-6-oxo-1,6-dihydro-pyrimidin-4-yl]-benzonitrile] was run?
A: Its IC50 is under 0.1 µM.

Q: With `CCc1ccc(-c2c(-c3ccc(C#N)cc3)nc(N3CCC(N)CC3)n(C)c2=O)cn1` [Example 10, 4-[2-(4-amino-piperidin-1-yl)-5-(6-ethyl-pyridin-3-yl)-1-methyl-6-oxo-1,6-dihydro-pyrimidin-4-yl]-benzonitrile] as the compound, how does the IC50 read?
A: Its IC50 is 0.1 to 1 µM.

Q: How did the IC50 turn out when `CNC1CCN(c2nc(-c3ccc(C#N)c(F)c3)c(-c3ccc(OC)cc3)c(=O)n2C)CC1` [Example 11, 2-fluoro-4-[5-(4-methoxy-phenyl)-1-methyl-2-(4-methylamino-piperidin-1-yl)-6-oxo-1,6-dihydro-pyrimidin-4-yl]-benzonitrile] was run?
A: Its IC50 is under 0.1 µM.

Q: `CNC1CCN(c2nc(-c3ccc(C#N)c(F)c3)c(-c3ccc(OC)c(F)c3)c(=O)n2C)CC1` [Example 12, 2-fluoro-4-[5-(3-fluoro-4-methoxy-phenyl)-1-methyl-2-(4-methylamino-piperidin-1-yl)-6-oxo-1,6-dihydro-pyrimidin-4-yl]-benzonitrile] was tested. Which IC50 did it give?
A: The IC50 was under 0.1 µM.

Q: How did the IC50 turn out when `Cn1c(N2CCC(N)CC2)nc(-c2ccc(C#N)c(F)c2)c(C#CC2CCCC2)c1=O` [Example 14, 4-[2-(4-amino-piperidin-1-yl)-5-cyclopentylethynyl-1-methyl-6-oxo-1,6-dihydro-pyrimidin-4-yl]-2-fluoro-benzonitrile] was run?
A: The IC50 was under 0.1 µM.

Q: For `COc1ccc(-c2c(-c3ccc(C#N)c(F)c3)nc(N3CCC(N)CC3)n(CC(=O)O)c2=O)cc1` [Example 15, [2-(4-amino-piperidin-1-yl)-4-(4-cyano-3-fluoro-phenyl)-5-(4-methoxy-phenyl)-6-oxo-6H-pyrimidin-1-yl]-acetic acid], which IC50 is on record?
A: Its IC50 is 1 to 10 µM.

Q: `COc1ccc(-c2c(-c3ccc(C#N)c(F)c3)nc(N3CCC(N)CC3)n(CC(N)=O)c2=O)cc1` [Example 16, 2-[2-(4-amino-piperidin-1-yl)-4-(4-cyano-3-fluoro-phenyl)-5-(4-methoxy-phenyl)-6-oxo-6H-pyrimidin-1-yl]-acetamide] was tested. Which IC50 did it give?
A: Its IC50 is under 0.1 µM.

Q: `Cn1c(N2CCC(N)CC2)nc(-c2ccc(C#N)c(F)c2)c(-c2ccc3occc3c2)c1=O` [Example 18, 4-[2-(4-amino-piperidin-1-yl)-5-benzofuran-5-yl-1-methyl-6-oxo-1,6-dihydro-pyrimidin-4-yl]-2-fluoro-benzonitrile] was tested. Which IC50 did it give?
A: The IC50 was under 0.1 µM.

Q: How did the IC50 turn out when `Cn1c(N2CCC(N)CC2)nc(-c2ccc(C#N)c(F)c2)c(Cl)c1=O` [Example 20, 4-[2-(4-aminopiperidin-1-yl)-5-chloro-1-methyl-6-oxopyrimidin-4-yl]-2-fluorobenzonitrile] was run?
A: The IC50 was 0.1 to 1 µM.

Q: How did the IC50 turn out when `COc1ccc(-c2c(-c3ccc(C#N)c(F)c3)nc(N3CCC4(CCNC4)CC3)n(C)c2=O)cc1F` [Example 22, 4-[2-(2,8-diaza-spiro[4.5]dec-8-yl)-5-(3-fluoro-4-methoxy-phenyl)-1-methyl-6-oxo-1,6-dihydro-pyrimidin-4-yl]-2-fluoro-benzonitrile] was run?
A: The IC50 was under 0.1 µM.

Q: For `Cn1c(N2CCC(N)CC2)nc(-c2ccc(C#N)c(F)c2)c(-c2ccc(C(F)(F)F)nc2)c1=O` [Example 23, 4-{2-(4-aminopiperidyl)-1-methyl-6-oxo-5-[6-(trifluoromethyl) (3-pyridyl)]hydropyrimidin-4-yl}-2-fluorobenzenecarbonitrile], which IC50 is on record?
A: Its IC50 is under 0.1 µM.

Q: How did the IC50 turn out when `COc1ccc(-c2c(-c3ccc(C#N)c(F)c3)nc(N3CCC[C@@H](N)C3)n(C)c2=O)cc1F` [Example 25, 4-[2-((3R)-3-aminopiperidyl)-5-(3-fluoro-4-methoxyphenyl)-1-methyl-6-oxohydropyrimidin-4-yl]-2-fluorobenzenecarbonitrile] was run?
A: Its IC50 is under 0.1 µM.

Q: How did the IC50 turn out when `COc1ncc(-c2c(-c3ccc(C#N)c(F)c3)nc(N3CCC(N)CC3)n(C)c2=O)cc1F` [Example 26, 4-[2-(4-aminopiperidyl)-5-(5-fluoro-6-methoxy(3-5,6-dihydropyridyl))-1-methyl-6-oxohydropyrimidin-4-yl]-2-fluorobenzenecarbonitrile] was run?
A: The IC50 was under 0.1 µM.

Q: How did the IC50 turn out when `COc1ccc(-c2c(-c3ccc(C#N)c(F)c3)nc(N3CC[C@@H](N)C3)n(C)c2=O)cc1F` [Example 27, 4-[2-((3R)-3-aminopyrrolidinyl)-5-(3-fluoro-4-methoxyphenyl)-1-methyl-6-oxohydropyrimidin-4-yl]-2-fluorobenzenecarbonitrile] was run?
A: The IC50 was under 0.1 µM.

Q: With `COc1ccc(-c2c(-c3ccc(C#N)c(F)c3)nc(N3CC[C@H](N)C3)n(C)c2=O)cc1F` [Example 29, 4-[2-((3S)-3-amino-pyrrolidin-1-yl)-5-(3-fluoro-4-methoxy-phenyl)-1-methyl-6-oxo-1,6-dihydro-pyrimidin-4-yl]-2-fluoro-benzonitrile] as the compound, how does the IC50 read?
A: The IC50 was 0.1 to 1 µM.

Q: With `COc1ccc(-c2c(-c3ccc(C#N)c(F)c3)nc(N3CCC[C@@H](N)C3)n(C)c2=O)cc1` [Example 30, 4-[2-((3R)-3-aminopiperidyl)-5-(4-methoxyphenyl)-1-methyl-6-oxohydro-pyrimidin-4-yl]-2-fluorobenzenecarbonitrile] as the compound, how does the IC50 read?
A: The IC50 was under 0.1 µM.

Q: How did the IC50 turn out when `COc1ccc(-c2c(-c3ccc(C#N)c(F)c3)nc(N3CCC[C@H](N)C3)n(C)c2=O)cc1` [Example 31, 4-[2-((3S)-3-amino-piperidin-1-yl)-5-(4-methoxy-phenyl)-1-methyl-6-oxo-1,6-dihydro-pyrimidin-4-yl]-2-fluoro-benzonitrile] was run?
A: Its IC50 is under 0.1 µM.

Q: How did the IC50 turn out when `COc1ccc(-c2c(-c3ccc(C#N)c(F)c3)nc(N3CCC(C)(N)CC3)n(C)c2=O)cc1F` [Example 32, 4-[2-(4-amino-4-methyl-piperidin-1-yl)-5-(3-fluoro-4-methoxy-phenyl)-1-methyl-6-oxo-1,6-dihydro-pyrimidin-4-yl]-2-fluoro-benzonitrile] was run?
A: Its IC50 is under 0.1 µM.

Q: `Cn1c(N2CCC(N)CC2)nc(-c2ccc(C#N)cc2)c(-c2ccc3c(cnn3C)c2)c1=O` [Example 33, 4-[2-(4-aminopiperidyl)-1-methyl-5-(1-methyl(1H-indazol-5-yl))-6-oxohydropyrimidin-4-yl]benzenecarbonitrile] was tested. Which IC50 did it give?
A: The IC50 was under 0.1 µM.

Q: How did the IC50 turn out when `Cn1cc2cc(-c3c(-c4ccc(C#N)c(F)c4)nc(N4CCC(N)CC4)n(C)c3=O)ccc2n1` [Example 37, 4-[2-(4-aminopiperidyl)-1-methyl-5-(2-methyl(2H-indazol-5-yl))-6-oxohydropyrimidin-4-yl]-2-fruorobenzenecarbonitrile] was run?
A: The IC50 was under 0.1 µM.

Q: `COc1c(F)cc(-c2c(-c3ccc(C#N)cc3)nc(N3CCC(N)CC3)n(C)c2=O)cc1F` [Example 38, 4-[2-(4-aminopiperidyl)-5-(3,5-difluoro-4-methoxyphenyl)-1-methyl-6-oxohydropyrimidin-4-yl]benzenecarbonitrile] was tested. Which IC50 did it give?
A: Its IC50 is under 0.1 µM.

Q: For `CNC(=O)c1ccc(-c2c(-c3ccc(C#N)cc3)nc(N3CCC(N)CC3)n(C)c2=O)cc1F` [Example 40, {4-[2-(4-aminopiperidyl)-6-(4-cyanophenyl)-3-methyl-4-oxo(3-hydropyrimidin-5-yl)]-2-fluorophenyl}-N-methylcarboxamide], which IC50 is on record?
A: The IC50 was 0.1 to 1 µM.

Q: With `Cn1c(N2CCC(N)CC2)nc(-c2ccc(C#N)cc2)c(-c2ccc(C(N)=O)c(F)c2)c1=O` [Example 41, 4-[2-(4-aminopiperidyl)-6-(4-cyanophenyl)-3-methyl-4-oxo(3-hydropyrimidin-5-yl)]-2-fluorobenzamide] as the compound, how does the IC50 read?
A: The IC50 was 0.1 to 1 µM.

Q: For `Cn1c(N2CCC(N)CC2)nc(-c2ccc(C#N)c(F)c2)c(-c2ccc3c(c2)CNC3=O)c1=O` [Example 42, 4-[2-(4-amino-piperidin-1-yl)-1-methyl-6-oxo-5-(1-oxo-2,3-dihydro-1H-isoindol-5-yl)-1,6-dihydro-pyrimidin-4-yl]-2-fluoro-benzonitrile], which IC50 is on record?
A: Its IC50 is 0.1 to 1 µM.

Q: Which IC50 does the source give for `COc1ccc(-c2c(-c3ccc(C#N)cc3)nc(NC[C@H]3CCNC3)n(C)c2=O)cc1F` [Example 44, 4-{5-(3-fluoro-4-methoxy-phenyl)-1-methyl-6-oxo-2-[(3S)-(pyrrolidin-3-ylmethyl)-amino]-1,6-dihydro-pyrimidin-4-yl}-benzonitrile] here?
A: Its IC50 is 0.1 to 1 µM.

Q: With `COc1ccc(-c2c(-c3ccc(C#N)cc3)nc(NC[C@@H]3CCNC3)n(C)c2=O)cc1F` [Example 45, 4-{5-(3-fluoro-4-methoxy-phenyl)-1-methyl-6-oxo-2-[(3R)-(pyrrolidin-3-ylmethyl)-amino]-1,6-dihydro-pyrimidin-4-yl}-benzonitrile] as the compound, how does the IC50 read?
A: Its IC50 is 0.1 to 1 µM.

Q: Which IC50 does the source give for `COc1ccc(-c2c(-c3ccc(C#N)c(F)c3)nc(N3CCCNCC3)n(C)c2=O)cc1F` [Example 46, 4-[2-[1,4]diazepan-1-yl-5-(3-fluoro-4-methoxy-phenyl)-1-methyl-6-oxo-1,6-dihydro-pyrimidin-4-yl]-2-fluoro-benzonitrile] here?
A: The IC50 was under 0.1 µM.

Q: Which IC50 does the source give for `COc1ccc(-c2c(-c3ccc(C#N)c(F)c3)nc(N3CCNCC3)n(C)c2=O)cc1F` [Example 47, 2-fluoro-4-[5-(3-fluoro-4-methoxy-phenyl)-1-methyl-6-oxo-2-piperazin-1-yl-1,6-dihydro-pyrimidin-4-yl]-benzonitrile] here?
A: The IC50 was 0.1 to 1 µM.

Q: With `COc1ccc(-c2c(-c3ccc(C#N)cc3)nc(NC3CCNCC3)n(C)c2=O)cc1F` [Example 48, 4-[5-(3-fluoro-4-methoxy-phenyl)-1-methyl-6-oxo-2-(piperidin-4-ylamino)-1,6-dihydro-pyrimidin-4-yl]-benzonitrile] as the compound, how does the IC50 read?
A: The IC50 was 0.1 to 1 µM.

Q: `CN(C)c1ncc(-c2c(-c3ccc(C#N)c(F)c3)nc(N3CCC(N)CC3)n(C)c2=O)cn1` [Example 49, 4-[2-(4-amino-piperidin-1-yl)-2′-dimethylamino-1-methyl-6-oxo-1,6-dihydro-[5,5′]bipyrimidinyl-4-yl]-2-fluoro-benzonitrile] was tested. Which IC50 did it give?
A: The IC50 was under 0.1 µM.

Q: Which IC50 does the source give for `CNC(=O)c1ccc(-c2c(-c3ccc(C#N)c(F)c3)nc(N3CCC(N)CC3)n(C)c2=O)cn1` [Example 50, 5-[2-(4-amino-piperidin-1-yl)-4-(4-cyano-3-fluoro-phenyl)-1-methyl-6-oxo-1,6-dihydro-pyrimidin-5-yl]-pyridine-2-carboxylic acid methylamide] here?
A: Its IC50 is under 0.1 µM.
